Data from patent publication US9649268B2, “Glucuronolactone derivatives as self-tanning substances” (MERCK PATENT GMBH, priority 2011, dated 2017).

Tests used:
[1] = Liquid skin model (reaction with L-lysine, L*a*b* values); details: after 24 hours; for L* / a* / b*: 1 mmol compound + 1 mmol L-lysine, phosphate-buffered water (pH=7)/ethylene glycol
Procedure: The mixture is subsequently made up to the mark with a mixture of 6 ml of phosphate-buffered water (pH=7) and 94 ml of ethylene glycol. The reaction is observed with vigorous stirring, and the L*a*b* values are determined after 24 hours.

[2] = system: histological explants from the lower abdomen tissue of a person; test: Ex-vivo study on skin explants, chromametric measurement (ITA); set-up: species or system human; details: for Day 5 (ITA value): 30 μl on 5 consecutive days, 2 h
Procedure: 24 histological explants having an average diameter of 10 mm are prepared from the lower abdomen tissue of a person. The pieces of tissue are kept in BEM medium (BIO-EC's explants medium) at 37° C. in a humid atmosphere comprising 5% of CO2.
The tissue is divided into 8 batches of 3 explants each:
30 μl of the substance solutions are applied on 5 consecutive days using a round filter paper and left to act for 2 h. On days 0, 5 and 8, tissue sections with a thickness of 5 μm are prepared from the explants. These sections are investigated morphologically and measured chromametrically.
The colour measurements are carried out using a Minolta CR-300 Chroma-meter, and the L, a and b values are read off correspondingly on the instrument.
Principle of the Chromametric Measurement:
The following parameters are set:
In 1931, a test series was carried out by the CIE (Commision Internationale de L'Eclairage), where the “2-degree standard observer” was defined. A colour area is present here which is viewed at a viewing angle of 2 degrees. This viewing angle is used as standard in the chromametric measurement. • Irradiation source D65, corresponding to daylight • Region of the measurement: 3 mm • Parameters used: L* a* b*
The sample is placed on the bearing rail with the epidermis facing downwards. The irradiation is carried out from the underside through the area indicated (3 mm).
In the colorimetric determinations <<L a b>>, the L value determines the contrast of the skin. If the L value drops, the skin appears darker.
ITA is defined as arctan g[(L−50)/b]. If the ITA index increases, the skin appears paler.

[3] = Colouring test on merino wool balls; details: 1 mmol in 100 ml buffer (pH 7)/ethylene glycol 6/94, RT, 24 h, then washed and dried
Procedure: 1 mmol of each of DHA and the glucuronolactone derivatives are weighed out into a 100 ml conical flask with ground-glass joint:
(2) Glucuronolactone: 176 mg
(3) Compound (Ia): 216 mg
(4) Compound (Ic): 264 mg
A merino wool ball with the size of a grape and a magnetic stirrer are then added to each conical flask.
A mixture of 6% by vol. of buffer (ph7) and 94% by vol. of ethylene glycol is then prepared, 100 ml of this mixture are added to each conical flask and stirred at RT for 24 h.
After 24 h, the wool balls are washed firstly with water, then with warm washing-powder solution and again with water and dried.
This colouring result can also be applied to hair, since merino wool, like hair, is built up from proteins (keratins) and the outermost layer is in each case the cuticle.

[4] = Stability/odour of test formulations on storage; type: physicochemical; details: formulation with 5% active compound (mixture: 5% DHA + 1% compound Ia), stored at 40° C. for 8 weeks
Procedure: In order to compare the odour and stability of glucuronolactone, glucuronolactone acetonide of the formula (Ia), DHA and a combination in a formulation, 5 formulations are prepared: one without active compound as placebo, one with 5% of glucuronolactone, one with 5% of compound (Ia), one with 5% of DHA and one with 5% of DHA+1% of compound (Ia) (denoted by “active compound” in the recipe).
The following recipe is used:
Sources of Supply: (1) Sasol Germany GmbH, (2) Cognis GmbH, (3) Hansen&Rosenthal KG, (4) Merck KGaA/Rona®, (5) Alfa Aesar Preparation of the Formulations: […]
Heat phase A, heat phase B, prepare phase C on a magnetic stirrer (first introduce water, then add thickener), then homogenise phase C with phase B using an Ultra-Turrax and at the same time slowly add phase A. Subsequently add phase D and likewise homogenise well.
In the case of the 5th cream (with DHA and glucuronolactone acetonide), adjust the water proportion correspondingly.

Row | Structure (SMILES) | melting point [°C] | odour of the formulation [4] | L* [1] | a* [1] | b* [1] | L values compared with erythrulose (darker colour) [1] | Day 5 (ITA value) ([2]; 1% solution) [%] | colouration of wool samples compared with the untreated sample [3] | Day 5 (ITA value) ([2]; 4% solution) [%] | colour effect ([2]; identical concentration in the test formulation)
1 | O=C(CO)[C@H](O)CO [Erythrulose, reference compound] |  |  | 92.6 | 4.8 | 35.8 |  |  |  | −5 | 
2 | COc1ccc(C2OC3OC4C(O)C(=O)OC4C3O2)cc1 [Compound Ie, 1,2-O—(R,S)-(4-Methoxybenzylidene)-α-D-glucofuranurono-6,3-lactone] |  |  | 76.4 | 39.1 | 106.7 | lower L values than erythrulose |  |  |  | 
3 | O=C1OC2C3OC(c4ccccc4)OC3OC2C1O [Compound Ic, 1,2-O—(R,S)-(Benzylidene)-α-D-glucofuranurono-6,3-lactone] |  |  | 68.0 | 55.2 | 109.6 | lower L values than erythrulose |  | yellow colouration |  | 
4 | COC1OC2C(O)C(=O)OC2C1O (stereo not shown) [Compound Ib] |  |  | 81.1 | 30.8 | 103.8 | lower L values than erythrulose |  |  |  | 

Second part, led by results:

Row | melting point [°C] | odour of the formulation [4] | Structure (SMILES) | L* [1] | a* [1] | b* [1] | L values compared with erythrulose (darker colour) [1] | Day 5 (ITA value) ([2]; 1% solution) [%] | colouration of wool samples compared with the untreated sample [3] | Day 5 (ITA value) ([2]; 4% solution) [%] | colour effect ([2]; identical concentration in the test formulation)
5 | 82 |  | COc1cc(C2OC3OC4C(O)C(=O)OC4C3O2)ccc1O [Compound Ig, 1,2-O—(R,S)-(4-hydroxy-3-methoxybenzylidene)-α-D-glucofuranurono-6,3-lactone] | 80.9 | 32.0 | 100.0 | lower L values than erythrulose |  |  |  | 
6 |  | developed the typical DHA odour | O=C(CO)CO [DHA, 1,3-dihydroxyacetone, reference compound] | 46.7 | 27.2 | 69.4 |  | −15 | no colouration |  | 
7 |  | produce no odour | O=C[C@H](O)[C@H]1OC(=O)[C@@H](O)[C@H]1O [Glucuronolactone] | 96.1 | 4.3 | 45.9 |  | −3 | no colouration |  | 
8 |  | produce no odour | CC1(C)OC2OC3C(O)C(=O)OC3C2O1 (stereo not shown) [Compound Ia, glucuronolactone acetonide] | 82.6 | 29.4 | 103.7 | lower L values than erythrulose | −2 | yellow colouration | −5 | comparable to erythrulose
